Test results as given in publication PMC6199744, “Development of Chemical Proteomics for the Folateome and Analysis of the Kinetoplastid Folateome” (ACS Infectious Diseases, 2018).
Where two headings read alike, the source gives them in different places.

Tests used:
Type in all cases: binding
[1] = target: T1, HeLa cell extract proteins (Homo sapiens, UniProt Q13011); settings: HeLa; protein ECH1
T1 construct: endogenous in cells; host or cells: HeLa cell extract
T1 sequence (Q13011 34-328): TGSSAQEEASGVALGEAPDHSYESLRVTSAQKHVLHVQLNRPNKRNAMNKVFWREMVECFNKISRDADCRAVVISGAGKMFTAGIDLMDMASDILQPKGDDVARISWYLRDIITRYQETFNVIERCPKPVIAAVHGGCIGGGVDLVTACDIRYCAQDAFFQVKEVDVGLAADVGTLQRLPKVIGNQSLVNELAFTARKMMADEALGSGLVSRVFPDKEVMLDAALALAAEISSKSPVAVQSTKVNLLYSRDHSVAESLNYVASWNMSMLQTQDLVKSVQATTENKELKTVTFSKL

[2] = target: T2, HeLa cell extract proteins (Homo sapiens, UniProt Q15365)
T2 construct: endogenous in cells; host or cells: HeLa cell extract
T2 sequence (Q15365 whole entry): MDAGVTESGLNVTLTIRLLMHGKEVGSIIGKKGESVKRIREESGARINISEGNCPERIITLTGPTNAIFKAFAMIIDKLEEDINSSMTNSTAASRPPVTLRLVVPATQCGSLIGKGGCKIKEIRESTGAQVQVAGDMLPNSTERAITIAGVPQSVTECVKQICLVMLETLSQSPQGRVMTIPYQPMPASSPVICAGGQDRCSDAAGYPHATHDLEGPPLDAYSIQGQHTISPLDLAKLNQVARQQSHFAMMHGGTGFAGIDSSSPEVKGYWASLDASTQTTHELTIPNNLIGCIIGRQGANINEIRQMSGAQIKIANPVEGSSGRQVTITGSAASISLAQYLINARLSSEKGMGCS

[3] = target: T3, HeLa cell extract proteins (Homo sapiens, UniProt P30086)
T3 construct: endogenous in cells; host or cells: HeLa cell extract
T3 sequence (P30086 whole entry): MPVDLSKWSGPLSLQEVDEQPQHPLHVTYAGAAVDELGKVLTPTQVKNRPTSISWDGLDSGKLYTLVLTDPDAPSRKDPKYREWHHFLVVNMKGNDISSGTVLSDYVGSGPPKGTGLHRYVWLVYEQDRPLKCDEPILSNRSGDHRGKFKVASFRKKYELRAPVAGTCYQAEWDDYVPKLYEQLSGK

[4] = target: T4, HeLa cell extract proteins (Homo sapiens, UniProt Q8NBE8)
T4 construct: endogenous in cells; host or cells: HeLa cell extract
T4 sequence (Q8NBE8 1-558): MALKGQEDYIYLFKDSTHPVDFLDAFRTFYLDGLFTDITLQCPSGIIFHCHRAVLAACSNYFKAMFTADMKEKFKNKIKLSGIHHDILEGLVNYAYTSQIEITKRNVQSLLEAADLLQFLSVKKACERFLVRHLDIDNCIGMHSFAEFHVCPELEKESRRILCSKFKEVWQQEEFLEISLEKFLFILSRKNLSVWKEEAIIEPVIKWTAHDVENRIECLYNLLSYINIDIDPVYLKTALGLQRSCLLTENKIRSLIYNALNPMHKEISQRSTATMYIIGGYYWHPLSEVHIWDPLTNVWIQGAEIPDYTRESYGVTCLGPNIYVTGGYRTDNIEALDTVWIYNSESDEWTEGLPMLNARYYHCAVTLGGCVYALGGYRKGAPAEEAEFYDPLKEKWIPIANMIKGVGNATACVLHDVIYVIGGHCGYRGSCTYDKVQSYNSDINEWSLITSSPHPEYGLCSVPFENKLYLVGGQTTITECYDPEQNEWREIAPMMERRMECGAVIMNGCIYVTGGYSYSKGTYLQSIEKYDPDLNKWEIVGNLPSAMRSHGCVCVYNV

[5] = target: T5, HeLa cell extract proteins (Homo sapiens, UniProt Q9H000); settings: HeLa
T5 construct: endogenous in cells; host or cells: HeLa cell extract
T5 sequence (Q9H000 1-416): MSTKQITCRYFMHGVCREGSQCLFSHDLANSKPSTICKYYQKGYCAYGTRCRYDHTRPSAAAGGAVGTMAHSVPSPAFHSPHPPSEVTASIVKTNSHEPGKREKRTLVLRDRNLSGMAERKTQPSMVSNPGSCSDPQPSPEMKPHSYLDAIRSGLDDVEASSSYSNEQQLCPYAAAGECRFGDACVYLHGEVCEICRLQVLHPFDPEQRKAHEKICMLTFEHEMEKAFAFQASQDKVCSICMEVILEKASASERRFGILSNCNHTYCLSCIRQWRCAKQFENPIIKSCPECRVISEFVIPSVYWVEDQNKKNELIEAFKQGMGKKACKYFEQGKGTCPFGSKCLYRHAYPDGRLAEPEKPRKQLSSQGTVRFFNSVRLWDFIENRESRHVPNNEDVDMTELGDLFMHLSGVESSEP

[6] = target: T6, HeLa cell extract proteins (Homo sapiens, UniProt Q99873)
T6 construct: endogenous in cells; host or cells: HeLa cell extract
T6 sequence (Q99873 whole entry): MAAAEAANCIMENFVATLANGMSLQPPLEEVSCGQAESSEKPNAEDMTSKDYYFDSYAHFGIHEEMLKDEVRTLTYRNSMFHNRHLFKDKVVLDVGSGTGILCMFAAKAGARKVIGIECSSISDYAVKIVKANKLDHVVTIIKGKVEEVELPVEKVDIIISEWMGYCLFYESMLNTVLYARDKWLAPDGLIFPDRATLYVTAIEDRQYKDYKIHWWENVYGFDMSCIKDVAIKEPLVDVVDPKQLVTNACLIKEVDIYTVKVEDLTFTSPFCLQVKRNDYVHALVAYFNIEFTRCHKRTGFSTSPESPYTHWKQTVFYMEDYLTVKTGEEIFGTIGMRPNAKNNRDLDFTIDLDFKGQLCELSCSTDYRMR

[7] = target: T7, HeLa cell extract proteins (Homo sapiens, UniProt Q9Y233); settings: HeLa
T7 construct: endogenous in cells; host or cells: HeLa cell extract
T7 sequence (Q9Y233 whole entry): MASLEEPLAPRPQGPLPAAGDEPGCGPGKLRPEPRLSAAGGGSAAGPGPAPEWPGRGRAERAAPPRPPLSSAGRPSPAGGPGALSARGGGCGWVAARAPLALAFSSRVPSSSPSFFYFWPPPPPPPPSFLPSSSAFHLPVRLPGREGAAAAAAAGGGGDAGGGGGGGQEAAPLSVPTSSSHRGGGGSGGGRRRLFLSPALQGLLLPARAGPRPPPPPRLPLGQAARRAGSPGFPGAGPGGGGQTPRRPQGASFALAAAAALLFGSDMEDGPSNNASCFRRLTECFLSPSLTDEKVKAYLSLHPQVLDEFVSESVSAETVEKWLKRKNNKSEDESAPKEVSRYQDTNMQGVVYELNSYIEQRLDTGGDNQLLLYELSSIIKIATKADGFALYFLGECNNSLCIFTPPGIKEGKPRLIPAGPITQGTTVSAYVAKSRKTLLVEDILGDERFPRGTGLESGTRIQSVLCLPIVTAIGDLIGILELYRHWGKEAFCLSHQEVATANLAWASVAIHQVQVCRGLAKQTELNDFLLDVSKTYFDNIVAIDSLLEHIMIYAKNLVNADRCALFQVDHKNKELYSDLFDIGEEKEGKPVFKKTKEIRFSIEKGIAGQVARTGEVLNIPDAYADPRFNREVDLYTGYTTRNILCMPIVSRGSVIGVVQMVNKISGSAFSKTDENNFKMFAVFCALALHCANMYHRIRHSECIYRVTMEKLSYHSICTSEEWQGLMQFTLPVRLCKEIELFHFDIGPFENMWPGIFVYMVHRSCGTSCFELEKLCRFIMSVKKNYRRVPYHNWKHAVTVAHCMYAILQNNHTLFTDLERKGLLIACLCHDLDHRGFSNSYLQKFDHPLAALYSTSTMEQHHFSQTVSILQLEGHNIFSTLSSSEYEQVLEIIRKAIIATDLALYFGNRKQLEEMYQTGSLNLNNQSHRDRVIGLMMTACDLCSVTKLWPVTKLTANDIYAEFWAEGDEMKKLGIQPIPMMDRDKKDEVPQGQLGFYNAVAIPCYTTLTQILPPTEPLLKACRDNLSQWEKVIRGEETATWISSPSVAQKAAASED

[8] = target: T8, HeLa cell extract proteins (Homo sapiens, UniProt P60709)
T8 construct: endogenous in cells; host or cells: HeLa cell extract

[9] = target: T9, HeLa cell extract proteins (Homo sapiens, UniProt P13674); settings: HeLa
T9 construct: endogenous in cells; host or cells: HeLa cell extract
T9 sequence (P13674 18-534): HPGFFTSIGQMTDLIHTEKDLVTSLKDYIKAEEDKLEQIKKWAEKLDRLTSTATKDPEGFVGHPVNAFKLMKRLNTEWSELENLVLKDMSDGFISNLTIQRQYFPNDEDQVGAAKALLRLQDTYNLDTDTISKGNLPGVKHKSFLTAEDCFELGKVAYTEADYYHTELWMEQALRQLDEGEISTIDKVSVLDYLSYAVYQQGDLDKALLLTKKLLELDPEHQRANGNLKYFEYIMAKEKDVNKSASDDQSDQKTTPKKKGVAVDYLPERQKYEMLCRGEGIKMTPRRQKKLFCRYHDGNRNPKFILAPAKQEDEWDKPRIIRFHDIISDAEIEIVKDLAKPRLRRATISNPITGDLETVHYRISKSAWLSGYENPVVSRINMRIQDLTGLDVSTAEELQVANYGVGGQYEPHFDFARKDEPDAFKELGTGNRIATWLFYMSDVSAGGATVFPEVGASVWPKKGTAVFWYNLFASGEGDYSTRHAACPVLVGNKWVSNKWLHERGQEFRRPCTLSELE

[10] = target: T10, HeLa cell extract proteins (Homo sapiens, UniProt P06744); settings: HeLa
T10 construct: endogenous in cells; host or cells: HeLa cell extract

[11] = target: T11, HeLa cell extract proteins (Homo sapiens, UniProt P55072)
T11 construct: endogenous in cells; host or cells: HeLa cell extract
T11 sequence (P55072 whole entry): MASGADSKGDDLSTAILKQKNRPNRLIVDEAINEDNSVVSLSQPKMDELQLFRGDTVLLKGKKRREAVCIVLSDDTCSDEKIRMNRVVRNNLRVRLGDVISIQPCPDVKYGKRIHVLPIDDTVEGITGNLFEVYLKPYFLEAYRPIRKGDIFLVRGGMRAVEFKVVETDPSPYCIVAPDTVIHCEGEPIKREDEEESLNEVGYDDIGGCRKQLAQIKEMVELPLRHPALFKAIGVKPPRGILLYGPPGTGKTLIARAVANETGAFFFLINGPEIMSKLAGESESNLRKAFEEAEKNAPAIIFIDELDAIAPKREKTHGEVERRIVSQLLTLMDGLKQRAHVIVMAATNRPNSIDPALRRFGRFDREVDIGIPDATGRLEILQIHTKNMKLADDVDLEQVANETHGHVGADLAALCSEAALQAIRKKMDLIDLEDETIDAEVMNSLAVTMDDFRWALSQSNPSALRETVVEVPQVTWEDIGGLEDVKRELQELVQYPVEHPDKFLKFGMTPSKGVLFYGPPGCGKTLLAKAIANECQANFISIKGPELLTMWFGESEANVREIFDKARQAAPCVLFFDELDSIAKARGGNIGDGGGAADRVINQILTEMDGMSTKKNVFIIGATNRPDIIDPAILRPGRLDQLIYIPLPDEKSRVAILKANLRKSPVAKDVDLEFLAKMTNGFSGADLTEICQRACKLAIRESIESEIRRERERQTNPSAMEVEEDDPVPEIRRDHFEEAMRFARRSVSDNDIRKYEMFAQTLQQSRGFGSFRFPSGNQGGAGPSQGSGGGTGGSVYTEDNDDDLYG

[12] = target: T12, HeLa cell extract proteins (Homo sapiens, UniProt P15121)
T12 construct: endogenous in cells; host or cells: HeLa cell extract

[13] = target: T13, HeLa cell extract proteins (Homo sapiens, UniProt P15104); settings: HeLa
T13 construct: endogenous in cells; host or cells: HeLa cell extract
T13 sequence (P15104 whole entry): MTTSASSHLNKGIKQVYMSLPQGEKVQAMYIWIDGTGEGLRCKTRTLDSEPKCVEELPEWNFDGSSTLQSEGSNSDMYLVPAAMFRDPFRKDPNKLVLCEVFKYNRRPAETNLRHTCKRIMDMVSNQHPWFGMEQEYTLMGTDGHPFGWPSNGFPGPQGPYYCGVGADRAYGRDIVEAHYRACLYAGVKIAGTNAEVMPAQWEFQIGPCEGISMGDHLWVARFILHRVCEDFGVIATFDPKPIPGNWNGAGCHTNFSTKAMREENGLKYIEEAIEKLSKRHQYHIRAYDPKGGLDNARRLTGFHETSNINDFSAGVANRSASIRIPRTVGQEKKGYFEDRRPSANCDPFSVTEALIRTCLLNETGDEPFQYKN

[14] = target: T14, HeLa cell extract proteins (Homo sapiens, UniProt P54136); settings: HeLa
T14 construct: endogenous in cells; host or cells: HeLa cell extract
T14 sequence (P54136 1-660): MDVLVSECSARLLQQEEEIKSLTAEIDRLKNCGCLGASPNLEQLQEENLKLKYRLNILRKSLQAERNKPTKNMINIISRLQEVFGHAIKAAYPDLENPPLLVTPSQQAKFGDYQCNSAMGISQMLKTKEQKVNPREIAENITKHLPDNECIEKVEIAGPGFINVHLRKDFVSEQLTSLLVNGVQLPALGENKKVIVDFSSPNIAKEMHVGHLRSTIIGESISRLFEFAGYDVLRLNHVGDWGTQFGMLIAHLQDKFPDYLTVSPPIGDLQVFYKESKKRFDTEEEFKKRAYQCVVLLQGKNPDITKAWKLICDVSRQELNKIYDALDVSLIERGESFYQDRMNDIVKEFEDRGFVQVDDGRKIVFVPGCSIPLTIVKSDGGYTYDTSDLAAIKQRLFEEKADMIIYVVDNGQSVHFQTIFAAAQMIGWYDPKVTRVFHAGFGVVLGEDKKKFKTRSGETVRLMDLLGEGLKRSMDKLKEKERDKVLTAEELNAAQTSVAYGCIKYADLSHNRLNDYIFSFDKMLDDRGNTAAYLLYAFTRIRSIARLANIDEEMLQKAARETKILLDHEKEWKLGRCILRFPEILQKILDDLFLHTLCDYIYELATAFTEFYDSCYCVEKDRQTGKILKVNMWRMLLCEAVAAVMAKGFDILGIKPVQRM

[15] = target: T15, HeLa cell extract proteins (Homo sapiens, UniProt Q96P70); settings: HeLa
T15 construct: endogenous in cells; host or cells: HeLa cell extract
T15 sequence (Q96P70 whole entry): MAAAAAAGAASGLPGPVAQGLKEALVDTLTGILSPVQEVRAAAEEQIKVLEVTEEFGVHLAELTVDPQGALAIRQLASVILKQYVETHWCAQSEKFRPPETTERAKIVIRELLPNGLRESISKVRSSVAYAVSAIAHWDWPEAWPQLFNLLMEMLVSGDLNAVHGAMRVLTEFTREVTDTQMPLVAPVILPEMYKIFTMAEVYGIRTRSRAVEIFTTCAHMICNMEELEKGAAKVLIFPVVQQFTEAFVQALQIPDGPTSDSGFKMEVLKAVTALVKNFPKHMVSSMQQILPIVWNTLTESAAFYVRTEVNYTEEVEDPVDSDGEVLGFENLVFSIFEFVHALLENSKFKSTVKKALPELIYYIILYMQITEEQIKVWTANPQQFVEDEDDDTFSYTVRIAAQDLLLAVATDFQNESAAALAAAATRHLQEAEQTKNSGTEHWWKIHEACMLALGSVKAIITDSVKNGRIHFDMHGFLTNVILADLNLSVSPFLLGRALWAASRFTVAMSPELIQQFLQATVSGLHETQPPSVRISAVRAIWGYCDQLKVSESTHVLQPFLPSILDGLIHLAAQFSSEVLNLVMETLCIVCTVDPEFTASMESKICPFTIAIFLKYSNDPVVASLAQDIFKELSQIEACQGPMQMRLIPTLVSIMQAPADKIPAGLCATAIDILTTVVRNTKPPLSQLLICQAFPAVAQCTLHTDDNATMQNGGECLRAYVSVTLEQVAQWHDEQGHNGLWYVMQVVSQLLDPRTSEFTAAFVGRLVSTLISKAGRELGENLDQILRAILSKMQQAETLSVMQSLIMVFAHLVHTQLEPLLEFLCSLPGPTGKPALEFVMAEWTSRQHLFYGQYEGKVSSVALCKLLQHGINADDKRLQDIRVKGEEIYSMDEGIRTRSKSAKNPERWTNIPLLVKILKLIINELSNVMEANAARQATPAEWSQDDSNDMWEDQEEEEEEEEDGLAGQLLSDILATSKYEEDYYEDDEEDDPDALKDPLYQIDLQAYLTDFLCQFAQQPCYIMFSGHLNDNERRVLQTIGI

[16] = protein GPI (CDNA FLJ56429, HIGHLY SIMILAR TO GLUCOSE-6-PHOSPHATE ISOMERASE.)

Row | SMILES | fold changes relative to vehicle control [1] | fold changes relative to vehicle control ([2]; protein PCBP1; HeLa) | fold changes relative to vehicle control ([3]; protein PEBP1; HeLa) | fold changes relative to vehicle control ([4]; protein KLHL23; HeLa) | fold changes relative to vehicle control ([5]; captured protein MKRN2) | fold changes relative to vehicle control ([6]; protein PRMT1; HeLa) | fold changes relative to vehicle control ([7]; captured protein PDE10A) | fold changes relative to vehicle control ([8]; protein ACTB; HeLa) | fold changes relative to vehicle control ([9]; protein P4HA1) | fold changes relative to vehicle control [10, 16] [fold] | fold changes relative to vehicle control ([11]; protein VCP; HeLa) | fold changes relative to vehicle control ([12]; protein AKR1B1; HeLa) | fold changes relative to vehicle control ([13]; captured protein GLUL) | fold changes relative to vehicle control ([14]; protein RARS) | fold changes relative to vehicle control ([15]; captured protein IPO9) | fold changes relative to vehicle control ([2]; HeLa; protein PCBP1) | fold changes relative to vehicle control ([3]; HeLa; protein PEBP1) | fold changes relative to vehicle control ([4]; HeLa; protein KLHL23) | fold changes relative to vehicle control ([5]; protein MKRN2 (MAKORIN-2)) | fold changes relative to vehicle control ([6]; HeLa; protein PRMT1) | further results
1 | CCCCCCOc1cccc(Cc2cnc(N)nc2N)c1 [compound 2] | 0.91 | 1.08 | 1.9 | 0.94 | 0.9 | 1.24 | 0.94 | 1.5 | 1.05 | 2.26 | 1.29 | 1.7 | 1.02 | 1.19 | 1.14 | – | – | – | – | – | –
2 | NCCOCCOCC(=O)Nc1nc2ncc(CNc3ccc(C(=O)NC(CCC(=O)O)C(=O)O)cc3)nc2c(=O)[nH]1 (stereo not drawn) [compound 6] | 0.96 | – | – | – | – | – | – | – | – | – | – | – | – | – | – | 0.94 | 1.42 | 0.8 | 0.92 | 0.95 | fold changes relative to vehicle control ([7]; protein PDE10A): 0.78; fold changes relative to vehicle control ([8]; HeLa; protein ACTB): 1.39; fold changes relative to vehicle control ([9]; captured protein P4HA1): 1; fold changes relative to vehicle control ([10]; protein GPI): 1.23; fold changes relative to vehicle control ([11]; HeLa; protein VCP): 1.07; fold changes relative to vehicle control ([12]; HeLa; protein AKR1B1): 1.2; fold changes relative to vehicle control ([13]; protein GLUL): 0.81; fold changes relative to vehicle control ([14]; captured protein RARS): 0.99; fold changes relative to vehicle control ([15]; protein IPO9): 1
3 | CCCCCCOc1ccc(Cc2cnc(N)nc2N)cc1 [compound 1] | 0.95 | 1.02 | 1.23 | 0.87 | 0.9 | 0.95 | 0.96 | 1.25 | 0.9 | 1.37 | 0.94 | 1.12 | 0.97 | 0.9 | 0.89 | – | – | – | – | – | –
4 | NCCCNc1ccc(C(=O)NC(CCC(=O)O)C(=O)O)cc1 (stereo not drawn) [compound 7] | 0.99 | – | – | – | – | – | – | – | – | – | – | – | – | – | – | 0.91 | 1.07 | 0.83 | 0.98 | 0.91 | fold changes relative to vehicle control ([7]; protein PDE10A): 1; fold changes relative to vehicle control ([8]; HeLa; protein ACTB): 1.04; fold changes relative to vehicle control ([9]; captured protein P4HA1): 1.04; fold changes relative to vehicle control ([10]; protein GPI): 0.96; fold changes relative to vehicle control ([11]; HeLa; protein VCP): 1.01; fold changes relative to vehicle control ([12]; HeLa; protein AKR1B1): 0.95; fold changes relative to vehicle control ([13]; protein GLUL): 1.07; fold changes relative to vehicle control ([14]; captured protein RARS): 0.96; fold changes relative to vehicle control ([15]; protein IPO9): 0.94
